Like-named read-outs stand apart in the source and are kept apart here.
Key:
[1] = molecular target: T1, Mammalian DNA-PK, isolated from Hela cell nuclear extract (Homo sapiens, UniProt P78527); test: DNA-PK inhibition assay (33P-ATP, filter binding); type: biochemical
T1 construct: Mammalian DNA-PK, isolated from Hela cell nuclear extract; endogenous in cells; host or cells: HeLa cell nuclear extract (purified per Gell and Jackson 1999)
Protocol: In order to assess the inhibitory action of the compounds against DNA-PK in vitro, the following assay was used to determine IC50 values.
The total assay volume per well was 40 μl.
After 10 minutes of incubation at 30° C. the reactions were initiated by the addition of Na-ATP (50 μM final), ^33p-γATP and a 30mer double stranded DNA oligonucleotide (10 ng/μl) in a volume of 10 μl. Designated positive and negative reaction wells were done in combination with compound wells (unknowns) in order to calculate % enzyme activities. The plates were then shaken for 2 minutes and incubated at 30° C. for 45 minutes.
Following the incubation, the reactions were quenched by the addition of 50 μl 30% acetic acid to each well. The plates were then shaken for 5 minutes and the contents of each plate (80 μl from each well) transferred over to a 96 well Polyfiltronics filtration plate, containing P81-phosphocellulose membrane (TRADE MARK)(Whatman, UK). The solutions were vacuum pumped through the membrane and each well membrane washed four times using 300 μl of 15% acetic acid. The well membranes were then air dried and 20 μl of scintillant was added to each well.
The plates were transferred to a TopCount NXT (TRADE MARK) (Packard, UK) for scintillation counting. Values recorded are counts per minute (cpm) following a 1 minute counting time for each well.
The enzyme activity for each compound is then calculated using the following equation: […]
These are determined over a range of different concentrations, normally from 10 μM down to 0.01 μM. Such IC50 values are used as comparative values to identify increased compound potencies.

[2] = IC50 of less than about 1 μM and/or % inhibition of more than about 50 at 1 μM, read-out: DNA-PK inhibition IC50 (particular efficacy)
[3] = concentration at which 50% of the enzyme activity is inhibited, read-out: DNA-PK Inhibition IC50

SMILES	melting point	further results
O=c1cc(N2CCOCC2)cc(-c2ccccc2)o1 [Compound 1, 4-morpholin-4-yl-6-(phenyl)-pyran-2-one]	161 to 162 °C	
CC(C)(C)c1ccc(-c2cc(N3CCOCC3)cc(=O)o2)cc1 [Compound 2, 4-morpholin-4-yl-6-(4-(t-butyl)phenyl)-pyran-2-one]	230 to 232 °C	
COc1ccc(-c2cc(N3CCOCC3)cc(=O)o2)cc1 [Compound 3, 6-(4-methoxyphenyl)-4-morpholin-4-yl-pyran-2-one]	212 to 213 °C	
O=c1cc(N2CCSCC2)nc2c3ccccc3ccn12 [Compound 6, 2-Thiomorpholin-4-yl-pyrimido[2,1-a]isoquinolin-4-one]	240 to 242 °C	IC50 [1, 2]: < 1000 nM; IC50 [1, 3]: 5000 nM
CC1CCC(C)N(c2cc(=O)n3ccc4ccccc4c3n2)C1 (stereo not drawn) [Compound 7, 2-(2,5-Dimethyl-piperidin-1-yl)pyrimido[2,1-a]isoquinolin-4-one]	214 to 216 °C	
O=c1cc(N2CCCC(CO)C2)nc2c3ccccc3ccn12 (stereo not drawn) [Compound 9, 2-(3-Hydroxymethyl-piperidin-1-yl)pyrimido[2,1-a]isoquinolin-4-one]	165 to 166 °C	
O=c1cc(NCC2CCCO2)nc2c3ccccc3ccn12 (stereo not drawn) [Compound 10, 2-[(Tetrahydro-furan-2-ylmethyl)-amino]pyrimido[2,1-a]isoquinolin-4-one]	174 to 175 °C	
O=c1cc(N(CCO)CCO)nc2c3ccccc3ccn12 [Compound 11, 2-[Bis-(2-hydroxy-ethyl)-amino]pyrimido[2,1-a]isoquinolin-4-one]	211 to 212 °C	
C[C@@H]1CN(c2cc(=O)n3ccc4ccccc4c3n2)C[C@H](C)O1 [Compound 13, 2-((2S,6R)-2,6-Dimethyl-morpholin-4-yl)-pyrimido[2,1-a]isoquinolin-4-one]	208 to 209 °C	IC50 [1, 3]: 8000 nM
CN(CC(O)c1ccccc1)c1cc(=O)n2ccc3ccccc3c2n1 (stereo not drawn) [Compound 16, 2-[(2-Hydroxy-2-phenyl-ethyl)-methyl-amino]-pyrimido[2,1-a]isoquinolin-4-one]	195 to 196 °C	
CN(CCC#N)c1cc(=O)n2ccc3ccccc3c2n1 [Compound 17, 3-[Methyl-(4-oxo-4H-pyrimido[2,1-a]isoquinolin-2-yl)-amino]-propionitrile]	166 to 167 °C	
O=c1cc(NCCc2cccs2)nc2c3ccccc3ccn12 [Compound 18, 2-(2-Thiophen-2-yl-ethylamino)-pyrimido[2,1-a]isoquinolin-4-one]	162 to 163 °C	
O=c1cc(NCC(O)CO)nc2c3ccccc3ccn12 (stereo not drawn) [Compound 19, 2-(2,3-Dihydroxypropylamino)-pyrimido[2,1-a]isoquinolin-4-one]	215 to 216 °C	
CC(O)CNc1cc(=O)n2ccc3ccccc3c2n1 (stereo not drawn) [Compound 20, 2-(2-Hydroxypropylamino)-pyrimido[2,1-a]isoquinolin-4-one]	199 to 200 °C	
O=c1cc(NCC(O)c2cccc(O)c2)nc2c3ccccc3ccn12 (stereo not drawn) [Compound 21, 2-[2-Hydroxy-2-(3-hydroxy-phenyl)-ethylamino]-pyrimido[2,1-a]isoquinolin-4-one]	159 to 161 °C	
O=c1cc(NCCO)nc2c3ccccc3ccn12 [Compound 22, 2-(2-Hydroxy-ethylamino)-pyrimido[2,1-a]isoquinolin-4-one]	218 to 221 °C	
O=c1cc(-c2ccccc2F)oc(N2CCOCC2)c1 [Compound 290, 6-(2-fluorophenyl)-2-(morpholin-4-yl)pyran-4-one]	137 to 138 °C	
O=c1cc(N2CCCCC2)oc2c1ccc1ccccc12 [Compound 295, 2-piperidin-1-yl-benzo[h]chromen-4-one]	205 to 207 °C	
O=c1cc(N2CCOCC2)oc2ccc(-c3ccccc3)cc12 [Compound 298, 2-(Morpholin-4-yl)-6-phenylchromen-4-one]	218 to 220 °C	
Cc1cccc2c(=O)cc(N3CCOCC3)oc12 [Compound 302, 8-Methyl-2-morpholin-4-yl-chromen-4-one]	148 °C	
COc1cccc2c(=O)cc(N3CCOCC3)oc12 [Compound 303, 8-Methoxy-2-morpholin-4-yl-chromen-4-one]	165 °C	

SMILES	melting point	further results
O=c1cc(N2CCOCC2)oc2c(OS(=O)(=O)C(F)(F)F)cccc12 [Compound 305, Trifluoro-methanesulfonic acid 2-morpholin-4-yl-4-oxo-4H-chromen-8-yl ester]	177.8 to 178.9 °C	
O=c1cc(N2CCOCC2)oc2cc(OS(=O)(=O)C(F)(F)F)ccc12 [Compound 306, Trifluoro-methanesulfonic acid 2-morpholin-4-yl-4-oxo-4H-chromen-7-yl ester]	143 to 145 °C	
O=c1cc(N2CCOCC2)oc2ccc(Br)cc12 [Compound 308, 6-Bromo-2-morpholin-4-yl-chromen-4-one]	147 to 149 °C	
C[C@@H]1CN(c2cc(=O)c3ccc4ccccc4c3o2)C[C@H](C)O1 [Compound 309, 2-(2,6-cis-dimethyl-morpholin-4-yl)-benzo[h]chromen-4-one]	211 to 212.5 °C	
O=c1cc(N2CCNCC2)oc2c1ccc1ccccc12 [Compound 311, 2-piperazin-1-yl-benzo[h]chromen-4-one]	208 to 209 °C	
O=c1cc(N2CCCC(CO)C2)oc2c1ccc1ccccc12 (stereo not drawn) [Compound 313, 2-(3-Hydroxymethyl-piperidin-1-yl)-benzo[h]chromen-4-one]	209 to 210 °C	
CN1CCN(c2cc(=O)c3ccc4ccccc4c3o2)CC1 [Compound 314, 2-(4-Methyl-piperazin-1-yl)-benzo[h]chromen-4-one]	184 to 185 °C	
O=c1cc(NCC2CCCO2)oc2c1ccc1ccccc12 (stereo not drawn) [Compound 316, 2-[(Tetrahydrofuran-2-ylmethyl)-amino]-benzo[h]chromen-4-one]	139 to 140 °C	
O=c1cc(N2CCOCC2)oc2ccc(O)cc12 [Compound 343, 6-Hydroxy-2-(morpholin-4-yl)-chromen-4-one]		IC50 [1, 3]: 700 nM
O=c1cc(N2CCOCC2)oc2cc(OCCS(=O)(=O)c3ccccc3)ccc12 [Compound 366]		IC50 [1, 2]: < 1000 nM
O=C1c2ccccc2C(=O)N1Cc1cccc(-c2ccc3c(=O)cc(N4CCOCC4)oc3c2)c1 [Compound 375]		IC50 [1, 2]: < 1000 nM
COc1ccc(-c2cccc3c(=O)cc(N4CCOCC4)oc23)cc1 [Compound 385]		IC50 [1]: < 1000 nM
O=c1cc(N2CCOCC2)oc2c(-c3cccc(-c4ccccc4)c3)cccc12 [Compound 389]		IC50 [1]: < 1000 nM
O=c1cc(N2CCOCC2)oc2c(-c3ccc(CO)cc3)cccc12 [Compound 394]		IC50 [1]: < 1000 nM
O=c1cc(N2CCOCC2)oc2c(-c3ccsc3)cccc12 [Compound 403]		IC50 [1, 2]: < 1000 nM
O=c1cc(N2CCOCC2)oc2c(-c3cc4ccccc4s3)cccc12 [Compound 408]		IC50 [1, 2]: < 1000 nM
CC(=O)c1ccc(-c2cccc3c(=O)cc(N4CCOCC4)oc23)s1 [Compound 409]		IC50 [1, 2]: < 1000 nM
O=c1cc(N2CCOCC2)oc2c(-c3cccc4c3oc3ccccc34)cccc12 [Compound 410]		IC50 [1, 2]: < 1000 nM
O=c1cc(N2CCOCC2)oc2cc(OCc3ccccc3Cl)ccc12 [Compound 417, 7-(2-Chlorobenzyloxy)-2-morpholin-4-yl-chromen-4-one]	167 to 168 °C	
O=c1cc(N2CCOCC2)oc2cc(OCC3CCCCC3)ccc12 [Compound 419, 7-Cyclohexylmethoxy-2-(morpholin-4-yl)-chromen-4-one]	187 to 188 °C	IC50 [1, 3]: 1000 nM

Reference: US7674823B2, “DNA-PK inhibitors” (Cancer Research Technology Limited, priority 2001, dated 2010)
